# Values quoted from earlier work in patent publication US7976880B2, “Pregnane glycoside compositions and Caralluma extract products and uses thereof” (priority 2003, dated 2011).
# Like-named read-outs stand apart in the source and are kept apart here.
# Test system: appetite
# Details: 3 mg per kg body weight
compound,measurement,setting,value
"O=C(O)CC(O)(C(=O)O)C(O)C(=O)O (single isomer, unassigned; (-)) [HCA, (−)-hydroxycitrate]",Reduction in appetite,at 6.5 hours,about 43%
same,Reduction in appetite,at 24 hours,about 29%
